Measured values published in patent US20060142249A1, “Ophthalmic use” (priority 2002, published 2006).

Columns and labels:
[1] = molecular target: GABA-B (Homo sapiens, UniProt Q9UBS5); test: Receptor profile, GABA-B; type: biochemical
[2] = system: GABA-C; test: Receptor profile, GABA-C; type: biochemical

GABA-B, sequence (Q9UBS5 15-961 limits assumed): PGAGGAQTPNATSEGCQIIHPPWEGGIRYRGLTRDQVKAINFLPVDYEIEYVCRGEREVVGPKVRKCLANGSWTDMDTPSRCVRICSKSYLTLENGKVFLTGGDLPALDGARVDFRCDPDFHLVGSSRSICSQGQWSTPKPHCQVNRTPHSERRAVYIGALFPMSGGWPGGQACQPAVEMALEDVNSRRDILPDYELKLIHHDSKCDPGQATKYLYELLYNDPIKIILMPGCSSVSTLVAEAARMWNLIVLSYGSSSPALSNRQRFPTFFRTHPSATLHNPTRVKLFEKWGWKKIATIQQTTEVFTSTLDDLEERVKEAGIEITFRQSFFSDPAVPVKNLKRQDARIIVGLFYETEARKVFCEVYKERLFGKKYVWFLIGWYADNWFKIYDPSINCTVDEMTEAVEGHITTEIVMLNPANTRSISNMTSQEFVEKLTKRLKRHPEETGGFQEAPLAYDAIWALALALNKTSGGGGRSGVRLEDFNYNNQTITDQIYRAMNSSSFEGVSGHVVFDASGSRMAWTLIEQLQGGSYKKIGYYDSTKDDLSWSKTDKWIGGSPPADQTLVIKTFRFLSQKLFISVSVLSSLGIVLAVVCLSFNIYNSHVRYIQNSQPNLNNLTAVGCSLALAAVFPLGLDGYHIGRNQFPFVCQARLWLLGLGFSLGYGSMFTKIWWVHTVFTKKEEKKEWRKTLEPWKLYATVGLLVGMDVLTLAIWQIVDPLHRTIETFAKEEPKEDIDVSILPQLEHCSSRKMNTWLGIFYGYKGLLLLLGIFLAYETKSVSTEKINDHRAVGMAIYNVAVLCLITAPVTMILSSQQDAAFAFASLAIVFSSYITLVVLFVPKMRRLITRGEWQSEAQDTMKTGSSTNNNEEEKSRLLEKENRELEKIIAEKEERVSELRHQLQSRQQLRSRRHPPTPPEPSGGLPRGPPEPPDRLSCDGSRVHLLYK
GABA-B, sequence (O75899 42-941 partner): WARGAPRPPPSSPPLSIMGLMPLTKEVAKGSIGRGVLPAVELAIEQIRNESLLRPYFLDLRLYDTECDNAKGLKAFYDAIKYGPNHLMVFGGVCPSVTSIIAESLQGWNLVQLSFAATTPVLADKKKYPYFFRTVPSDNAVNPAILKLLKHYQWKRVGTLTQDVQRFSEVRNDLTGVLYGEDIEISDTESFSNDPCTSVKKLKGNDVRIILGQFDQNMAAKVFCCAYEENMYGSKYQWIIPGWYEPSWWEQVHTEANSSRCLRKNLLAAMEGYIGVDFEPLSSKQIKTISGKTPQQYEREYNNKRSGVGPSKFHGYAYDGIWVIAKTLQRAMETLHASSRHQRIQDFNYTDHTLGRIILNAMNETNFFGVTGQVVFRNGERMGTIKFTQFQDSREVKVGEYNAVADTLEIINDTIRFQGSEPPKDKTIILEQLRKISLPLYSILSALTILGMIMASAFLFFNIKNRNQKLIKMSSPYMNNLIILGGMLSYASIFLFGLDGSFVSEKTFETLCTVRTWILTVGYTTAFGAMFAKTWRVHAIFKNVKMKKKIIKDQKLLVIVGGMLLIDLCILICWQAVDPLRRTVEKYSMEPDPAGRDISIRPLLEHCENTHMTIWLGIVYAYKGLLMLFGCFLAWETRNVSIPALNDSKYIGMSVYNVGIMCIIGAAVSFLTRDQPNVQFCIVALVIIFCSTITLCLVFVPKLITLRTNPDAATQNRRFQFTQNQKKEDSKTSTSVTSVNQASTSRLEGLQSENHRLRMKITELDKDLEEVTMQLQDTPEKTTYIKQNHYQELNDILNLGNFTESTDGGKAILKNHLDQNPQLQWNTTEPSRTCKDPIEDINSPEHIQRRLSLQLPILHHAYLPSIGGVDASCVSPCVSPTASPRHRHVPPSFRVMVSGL

CP(=O)(O)C1=CCNCC1 [TPMPA]
GABA-B mode of action (agonist/antagonist) [1]: agonist | GABA-C mode of action (agonist/antagonist) [2]: antagonist
